Experimental data taken from ChEMBL document CHEMBL1155711, “Bidentatoside I, a new triterpene saponin from Achyranthes bidentata” (J Nat Prod, 2001).
Calls of active or inactive are those of the source. The calls are words filed in the database; no cut-off is given here.

Tested on: HT-29
Test: Potentiation of cisplatin-induced cytotoxicity in human HT-29 cells
Assay type: functional, cell-based

CC1(C)CC[C@]2(C(=O)O[C@@H]3O[C@H](CO)[C@@H](O)[C@H](O)[C@H]3O)CC[C@]3(C)C(=CC[C@@H]4[C@@]5(C)CC[C@H](O[C@@H]6O[C@H](C(=O)O)[C@@H](O)[C@@H]7OC(O)(C(=O)O)C(OCC(=O)O)O[C@@H]67)C(C)(C)[C@@H]5CC[C@]43C)[C@@H]2C1 (stereo partly specified)
Activity: inactive
